Results taken from article PMC5369539 (Chemical Science, 2016).
Bridge positions count the residues as written; N and C are the ends. Square brackets hold non-standard residues; d marks the D form. Peptide text beside a SMILES is read from it. * marks the point of attachment. X1 = CC[C@H](C)CCCCC(=O)*; Dab = NCC[C@H](N)C(=O)O

Columns and labels:
S. aureus (ATCC6538) = assay: Minimum inhibitory concentration; format: cell-based; conditions: text summary of Table S1
E. faecalis (OG1X) = assay: Minimum inhibitory concentration; format: cell-based; conditions: text summary of Table S1

Compound | activity against S. aureus (in words) (S. aureus (ATCC6538)) | activity against E. faecalis (in words) (E. faecalis (OG1X))
CCCCCCCCCC(=O)N[C@@H](Cc1c[nH]c2ccccc12)C(=O)N[C@H](CC(N)=O)C(=O)N[C@@H](CC(=O)O)C(=O)N[C@@H]1C(=O)NCC(=O)N[C@@H](CCCN)C(=O)N[C@@H](CC(=O)O)C(=O)N[C@H](C)C(=O)N[C@@H](CC(=O)O)C(=O)NCC(=O)N[C@H](CO)C(=O)N[C@@H]([C@H](C)CC(=O)O)C(=O)N[C@@H](CC(=O)c2ccccc2N)C(=O)O[C@@H]1C [daptomycin] | appreciable activity | tolerant
CC[C@H](C)CCCCC(=O)N[C@@H](CCN)C(=O)N[C@H](C(=O)N[C@@H](CCN)C(=O)N[C@H]1CCNC(=O)[C@H]([C@@H](C)O)NC(=O)[C@H](CCN)NC(=O)[C@H](CCN)NC(=O)[C@H](CC(C)C)NC(=O)[C@@H](Cc2ccccc2)NC(=O)[C@H](CCN)NC1=O)[C@@H](C)O [polymyxin B] (X1-[Dab]T[Dab][Dab][Dab][dF]L[Dab][Dab]T; lactam 4-C (inferred); N-terminus assumed) |  | tolerant
